# Patent publication US20090082326A1, “SOLUBLE DOSAGE FORMS CONTAINING CEPHEM DERIVATIVES SUITABLE FOR PARENTERAL ADMINISTRATION” (Forest Laboratories Holdings Limited, priority 2007, published 2009)
# Structures can show the parent of a compound that is named as a salt.
# Key:
# [1] = Part A: single-dose IM injection and IV infusion pharmacokinetic study in healthy human subjects; assay type: in vivo; conditions: for Mean AUC0-∞ / Mean Cmax / Mean Tmax: prodrug; for AUC(0-inf): AUC0-∞; for half-life: T1/2
# Method: (§1) The pharmacokinetic parameters described herein include area under the plasma concentration-time curve (AUC0-t and AUC0-∞), maximum plasma concentration (Cmax), and time of maximum plasma concentration (Tmax). Terminal elimination half-life (T1/2) may also be provided. The time of maximum concentration, Tmax, is determined as the time corresponding to Cmax. Area under the plasma concentration-time curve up to the time corresponding to the last measurable concentration (AUC0-t) is calculated by numerical integration using the linear trapezoidal rule as follows:
# (§2) This was a two-part randomized, single and multiple-dose study to determine pharmacokinetics of ceftaroline fosamil and its the active moiety, ceftaroline, administered parenterally (both intramuscular injection and intravenous injection).
# (§3) Part A of the study was a single-dose open-label study. Part B of the study was a multiple-dose study.
# Twenty four subjects (six subjects per treatment group) were randomized to one of four treatment groups (A-D): The following doses were administered using vials containing 668 mg ceftaroline fosamil (USAN, molecular formula C22H21N8O8PS4.C2H4O2.H2O, molecular weight 762.75).
# (§4) The duration of the study for Treatment Groups E and F was 11 days (Days-1 through 10). Ceftaroline dosing solutions for IM injection were prepared using sterile water for injection.
# (§5) The pharmacokinetic parameters for ceftaroline fosamil and ceftaroline were determined using a standard assay. Blood for pharmacokinetic parameter analysis was collected from all subjects as follows: The first blood sample was collected at about 5 minutes (about 0.06 hours) after completion of the administration. Measurement was considered essentially zero prior to this point.
# (§6) Part A: 5, 15, and 30 minutes and 1, 2, 4, 6, 8, 12, 18, 24, 36 and 48 hours after injection. In addition, blood were be collected from subjects receiving IV infusion immediately prior to drug injection on day 8 and at 20, 40, 60 (immediately before the end of the study-drug infusion), 65 and 75 minutes, and 1.5, 2, 3, 4, 6, 8, 12, 24, 36 and 48 hours after the start of the drug infusion on Day 8. Part B: Drug injection on Days 1 and 5, at 5, 15, and 30 minutes and 1, 2, 4, 6, […] after the first injection on Day 1, immediately prior to (within 15 minutes) of injection of morning dose on Day 4, at 12 hours post Day 4 morning dose (before evening dose) and at 5, and 30 minutes and 1, 2, 4, 6, 8, 12, 24, 36 and 48 hours after the last (morning) injection on Day 5.
# [2] = Linear calculated pharmacokinetic parameters following single dose IM injection; assay type: in vivo, human; conditions: for Mean AUC0-∞ / Mean Cmax / Mean Tmax: prodrug, 228 mg/mL, calculated on linear assumptions; for AUC(0-inf) / Cmax / Tmax: human, in vivo, im
# Excerpt: The AUC0-∞ and Cmax values increase or decrease proportionally with the dosage of ceftaroline fosamil. Thus, one skilled in the art with the benefit of this disclosure may readily determine pharmacokinetic parameters for any specific dosage of ceftaroline fosamil (or other prodrugs of ceftaroline) used in a particular dosage form of the invention. The pro-drug in the blood is converted rapidly to the active moiety ceftaroline.
# Linear calculated pharmacokinetic parameters for ceftaroline following single dose IM injection of ceftaroline fosamil using vials containing 668 mg ceftaroline fosamil (USAN) at 228 mg/mL, defined per Table 23 are shown in Table 26.
# Linear calculated pharmacokinetic parameters for ceftaroline fosamil (INN) following single dose IM injection of ceftaroline fosamil USAN (at concentration of ceftaroline fosamil (anhydrous, acetate free basis of 228 mg/mL, defined per Table 23) are shown in Table 27.
# [3] = Part B: multiple-dose IM injection pharmacokinetic study in healthy human subjects; assay type: in vivo
# Method: as §1, §2, §3
# Eighteen subjects were randomized to one of two treatment groups The IM injection was be administered to the alternating side of the gluteus in each subject.
# as §4, §5, §6
# [4] = Aqueous solubility (stated in the description); assay type: physicochemical; conditions: water
# [5] = test system: aerobic and some anaerobic Gram-positive and Gram-negative bacteria; experiment: In vitro antimicrobial spectrum (MIC90); assay type: cell-based; conditions: read-out: minimum inhibitory concentration which inhibits 90% of the microbial strains in a given species (MIC90)
# [6] = prodrug in plasma, Treatment A: 400 mg (INN) IM, 228 mg/mL
# [7] = prodrug in plasma, Treatment B: 600 mg (INN) IM, 165 mg/mL
# [8] = prodrug in plasma, Treatment C: 600 mg (INN) IM, Day 1, 228 mg/mL
# [9] = prodrug in plasma, Treatment C: 600 mg (INN) IV infusion over 60 mins, Day 8
# [10] = prodrug in plasma, Treatment D: 1000 mg (INN) IM, 228 mg/mL
# [11] = single dose IM ceftaroline fosamil (USAN) 446 mg (≡400 mg INN), 228 mg/mL
# [12] = single dose IM ceftaroline fosamil (USAN) 668 mg (≡600 mg INN), 228 mg/mL
# [13] = single dose IM ceftaroline fosamil (USAN) 1114 mg (≡1000 mg INN), 228 mg/mL
# [14] = single dose IM ceftaroline fosamil (USAN) 223 mg (≡200 mg INN)
# [15] = single dose IM ceftaroline fosamil (USAN) 557 mg (≡500 mg INN)
# [16] = single dose IM ceftaroline fosamil (USAN) 891 mg (≡800 mg INN)
# [17] = single dose IM ceftaroline fosamil (USAN) 1337 mg (≡1200 mg INN)
# [18] = single dose IM ceftaroline fosamil (USAN) 2005 mg (≡1800 mg INN)
# [19] = prodrug in plasma, Treatment E: 600 mg (INN) IM q12h, Day 5, 228 mg/mL
# [20] = prodrug in plasma, Treatment E: 600 mg (INN) IM, Day 1, 228 mg/mL
# [21] = human, in vivo, im, 600 mg, AUC0-t
smiles,measurement,setting,value
"CCO/N=C(\C(=O)N[C@@H]1C(=O)N2C(C(=O)[O-])=C(Sc3nc(-c4cc[n+](C)cc4)cs3)CS[C@H]12)c1nsc(NP(=O)(O)O)n1 [Ceftaroline Fosamil (INN), 4-[2-[[(6R,7R)-2-carboxy-7-[[2(Z)-ethoxyimino-[5-(phosphonoamino)-1,2,4-thiadiazol-3-yl]acetyl]amino]-8-oxo-5-thia-1-azabicyclo[4.2.0]oct-2-en-3-yl]thio-4-thiazolyl]-1-methyl-, inner salt]",more bioavailable than an IV solution of the same strength,[1]; 600 mg (INN) IM solution at 165 mg/mL vs IV,over 50%
same,AUC0-t,[1]; [6],1950 ± 401 ng·h/mL
same,AUC0-∞,[1]; [6],2144 ± 421 ng·h/mL
same,Cmax,[1]; [6],1113 ± 418 ng/mL
same,T1/2,[1]; [6],1.21 ± 0.49 h
same,Tmax,[1]; [6],0.29 h
same,AUC0-t,[1]; [7],4846 ± 975 ng·h/mL
same,AUC0-∞,[1]; [7],5118 ± 985 ng·h/mL
same,Cmax,[1]; [7],2722 ± 557 ng/mL
same,T1/2,[1]; [7],1.06 ± 0.33 h
same,Tmax,[1]; [7],0.75 h
same,AUC0-t,[1]; [8],3060 ± 475 ng·h/mL
same,AUC0-∞,[1]; [8],3242 ± 486 ng·h/mL
same,Cmax,[1]; [8],1492 ± 275 ng/mL
same,T1/2,[1]; [8],1.57 ± 0.41 h
same,Tmax,[1]; [8],0.50 h
same,AUC0-t,[1]; [9],2734 ± 340 ng·h/mL
same,AUC0-∞,[1]; [9],2744 ± 344 ng·h/mL
same,Cmax,[1]; [9],3549 ± 465 ng/mL
same,T1/2,[1]; [9],0.07 ± 0.03 h
same,Tmax,[1]; [9],0.67 h
same,AUC0-t,[1]; [10],5791 ± 2795 ng·h/mL
same,AUC0-∞,[1]; [10],6229 ± 2829 ng·h/mL
same,Cmax,[1]; [10],2239 ± 657 ng/mL
same,T1/2,[1]; [10],1.87 ± 0.90 h
same,Tmax,[1]; [10],0.38 h
same,Mean AUC0-∞,[1]; [11],2144 ng·h/mL
same,Mean Cmax,[1]; [11],1113 ng/mL
same,Mean Tmax,[1]; [11],0.29 h
same,Mean AUC0-∞,[1]; [12],3242 ng·h/mL
same,Mean Cmax,[1]; [12],1492 ng/mL
same,Mean Tmax,[1]; [12],0.5 h
same,Mean AUC0-∞,[1]; [13],6229 ng·h/mL
same,Mean Cmax,[1]; [13],2238 ng/mL
same,Mean Tmax,[1]; [13],0.5 h
same,Mean AUC0-∞,[2]; [14],1162 ng·h/mL
same,Mean Cmax,[2]; [14],484 ng/mL
same,Mean Tmax,[2]; [14],0.3 h
same,Mean AUC0-∞,[2]; [15],2905 ng·h/mL
same,Mean Cmax,[2]; [15],1210 ng/mL
same,Mean Tmax,[2]; [15],0.5 h
same,Mean AUC0-∞,[2]; [16],4648 ng·h/mL
same,Mean Cmax,[2]; [16],1936 ng/mL
same,Mean Tmax,[2]; [16],0.5 h
same,Mean AUC0-∞,[2]; [17],6972 ng·h/mL
same,Mean Cmax,[2]; [17],2904 ng/mL
same,Mean Tmax,[2]; [17],0.5 h
same,Mean AUC0-∞,[2]; [18],10458 ng·h/mL
same,Mean Cmax,[2]; [18],4356 ng/mL
same,Mean Tmax,[2]; [18],0.5 h
same,AUC0-t,[3]; [19],4067 ± 782 ng·h/mL
same,Cmax,[3]; [19],2223 ± 497 ng/mL
same,T1/2,[3]; [19],1.11 ± 0.35 h
same,Tmax,[3]; [19],0.50 h
same,AUC0-t,[3]; [20],3096 ± 850 ng·h/mL
same,Cmax,[3]; [20],1575 ± 507 ng/mL
same,T1/2,[3]; [20],1.17 ± 0.52 h
same,Tmax,[3]; [20],0.50 h
"CCO/N=C(\C(=O)N[C@@H]1C(=O)N2C(C(=O)[O-])=C(Sc3nc(-c4cc[n+](C)cc4)cs3)CS[C@H]12)c1nsc(N)n1 [Ceftaroline, ceftaroline]",AUC greater at 165 mg/mL than at 228 mg/mL,"[1]; human, in vivo",~56%
same,Bioavailability (absolute),"[1]; human, in vivo",107 ± 7.1%
same,Cmax greater at 165 mg/mL than at 228 mg/mL,"[1]; human, in vivo",approximately 72%
same,bioavailability,"[1]; human, in vivo, Bioavailability (absolute)",~100%
same,Cmax,"[1]; human, in vivo, im, 400 mg",6971 ± 1616 ng/mL
same,Tmax,"[1]; human, in vivo, im, 400 mg",1.5 (1.0-2.0) h
same,AUC0-t,"[1]; human, in vivo, im, 400 mg, AUC0-t",35300 ± 6160 ng·h/mL
same,AUC(0-inf),"[1]; human, in vivo, im, 400 mg",35600 ± 6130 ng·h/mL
same,half-life,"[1]; human, in vivo, im, 400 mg",2.36 ± 0.22 h
same,AUC0-t,"[1]; human, in vivo, im, 600 mg",73439 ± 12080 ng·h/mL
same,AUC0-∞,"[1]; human, in vivo, im, 600 mg",73826 ± 12031 ng·h/mL
same,T1/2,"[1]; human, in vivo, im, 600 mg",2.27 ± 0.16 h
same,Tmax,"[1]; human, in vivo, im, 600 mg",2.0 (1.2-2.0) h
same,AUC0-t,[1]; [21],47500 ± 4010 ng·h/mL
same,AUC(0-inf),"[1]; human, in vivo, im, 600 mg",48100 ± 3850 ng·h/mL
same,half-life,"[1]; human, in vivo, im, 600 mg",2.55 ± 0.49 h
same,Tmax,"[1]; human, in vivo, im, 600 mg, Tmax",2 h
same,Cmax,"[1]; human, in vivo, im, 1000 mg",15997 ± 3739 ng/mL
same,AUC0-t,"[1]; human, in vivo, im, 1000 mg, AUC0-t",110000 ± 31300 ng·h/mL
same,AUC(0-inf),"[1]; human, in vivo, im, 1000 mg",110000 ± 31300 ng·h/mL
same,half-life,"[1]; human, in vivo, im, 1000 mg",2.68 ± 0.31 h
same,Tmax,"[1]; human, in vivo, im, 1000 mg, Tmax",2 h
same,Tmax,"[1]; human, in vivo, im, Mean Tmax",2 h
same,Tmax,"[1]; human, in vivo, im, Tmax following IM injection",1 to 2 h
same,Tmax,"[1]; human, in vivo, iv",1.0 (1.0-1.0) h
same,half-life,"[1]; human, in vivo, iv",2.13 ± 0.31 h
same,Tmax,"[1]; human, in vivo, iv, Tmax following IV infusion",~1 h
same,AUC(0-inf),[2]; 223 mg,17800 ng·h/mL
same,Cmax,[2]; 223 mg,3490 ng/mL
same,Tmax,[2]; 223 mg,1.5 h
same,AUC(0-inf),[2]; 557 mg,43200 ng·h/mL
same,Cmax,[2]; 557 mg,7900 ng/mL
same,Tmax,[2]; 557 mg,2 h
same,AUC(0-inf),[2]; 891 mg,81800 ng·h/mL
same,Cmax,[2]; 891 mg,12600 ng/mL
same,Tmax,[2]; 891 mg,2 h
same,AUC(0-inf),[2]; 1337 mg,133000 ng·h/mL
same,Cmax,[2]; 1337 mg,18800 ng/mL
same,Tmax,[2]; 1337 mg,2 h
same,AUC(0-inf),[2]; 2005 mg,211000 ng·h/mL
same,Cmax,[2]; 2005 mg,28100 ng/mL
same,Tmax,[2]; 2005 mg,2 h
same,solubility,[4],2000 to 3000 µg/mL
same,MIC90,[5],≤ 2000 µg/mL
same,AUC0-t,"[3]; human, in vivo, im, 600 mg",65407 ± 11807 ng·h/mL
same,T1/2,"[3]; human, in vivo, im, 600 mg",2.51 ± 0.45 h
same,AUC0-t,[3]; [21],55300 ± 11100 ng·h/mL
same,half-life,"[3]; human, in vivo, im, 600 mg, T1/2",2.54 ± 0.63 h
